The source of these data is patent publication US20030108484A1, “Individualization of therapy with antineoplastic agents” (McGill University, priority 2001, published 2003).

Structures are written as SMILES. Read-outs that look alike come from different tables or passages of the source. Marks after values point to notes of the source that are not given here.

The conditions of data set [1]: p<0.05, cited from earlier work.
In a further data set the test system is AAMU-Ab. Description: Competitive antigen ELISA, cross-reactivity of AAMU-Ab. The conditions noted are these: for % Cross-Reaction AAMU-Ab: competitive antigen ELISA, 0 = absence of inhibition or inhibition no higher than 40% at highest concentration tested (5×10^−3 M). The format is binding, rabbit. As for the experimental part: (§1) Buffers and water without additives are filtered through millipore filters and kept for 1 week. BSA, antibodies, Tween™ 20 and horse radish peroxidase conjugates are added to these buffers and water just prior to use. Urine samples are usually collected 4 hours after drinking a cup of coffee (instant or brewed with approximately 100 mg of caffeine per cup) and stored at −80° C. The urine samples are diluted 10 times with sodium phosphate buffer (620 mosm, pH 7.50) and are subsequently diluted with water to give concentrations of AAMU and 1X no higher than 3×10^−6 M in the ELISA. All the pipettings are done with an eight-channel pipette, except those of the antibody and sample solutions. Starting with the last well, 100 μL of a carbonate buffer (100 mM, pH 9.6) containing 2.5 μg mL^−1 antibodies are added to each well. After 90 min. at room temperature, the wells are washed three times with […] of TPB: isotonic sodium phosphate buffer (310 mosm, pH 7.50) containing 0.05% Tween™ 20.
(§2) After the initial wash, unoccupied sites are blocked by incubation for 90 min. at room temperature with 100 μL TBP containing 3% BSA. The wells are washed four times with 100 μL TPB. […] The microplate is gently shaken with an orbital shaker at room temperature for 3-4 hours. The wells are washed three times with 100 μL TPB containing 1% BSA and three times with water containing 0.05% Tween™ 20. To the washed plate is added 150 μL of a substrate buffer composed of citric acid (25 mM) and sodium phosphate dibasic buffer (50 mM, pH 5.0) containing 0.06% hydrogen peroxide and 0.04% o-phenylenediamine hydrochloride.
(§3) Buffers and water without additives were filtered through millipore filters and kept for 1 week. BSA, antibodies, Tween™ 20 and horse radish peroxidase conjugates were added to these buffers and water just prior to use. Urine samples were usually collected 4 hours after drinking a cup of coffee (instant or brewed with approximately 100 mg of caffeine per cup) and stored at −80° C. They were diluted 10 times with sodium phosphate buffer (620 mosm, pH 7.50) and were subsequently diluted with water to give concentrations of AAMU and 1X no higher than 3×10^−6 M in the ELISA. All the pipettings were done with an eight-channel pipette, except those of the antibody and sample solutions. Starting with the last well, 100 μL of a carbonate buffer (100 mM, pH 9.6) containing 2.5 μg mL^−1 antibodies was pipetted. After 90 min. at room temperature, the wells were washed three times with 100 μL of TPB: isotonic sodium phosphate buffer (310 mosm, pH 7.50) containing 0.05% TweenTm 20.
(§4) After the initial wash, unoccupied sites were blocked by incubation for 90 min. at room temperature with […] TBP containing 3% BSA. The wells were washed four times with 100 μL TPB. […] The microplate was gently shaken with an orbital shaker at room temperature for 3-4 hours. The wells were washed three times with 100 μL with TPB containing 1% BSA and three times with water containing 0.05% Tween™ 20. To the washed plate was added 150 μL of a substrate buffer composed of citric acid (25 mM) and sodium phosphate dibasic buffer (50 mM, pH 5.0) containing 0.06% hydrogen peroxide and 0.04% o-phenylenediamine hydrochloride. After 20 min. at room temperature with shaking, the reaction was stopped with 50 μL of 2.5 N HCl.
(§5) The cross reactivities of AAMU-Ab and 1X-Ab were tested using a wide variety of caffeine metabolites and structural analogs (Table 2 below).

In a further data set the test system is 1X-Ab. Description: Competitive antigen ELISA, cross-reactivity of 1X-Ab. The format is binding, rabbit. The conditions noted are these: for % Cross-Reaction 1X-Ab: competitive antigen ELISA, 0 = absence of inhibition or inhibition no higher than 40% at highest concentration tested (5×10^−3 M). The method, then:
as §1, §2, §3, §4, §5

The subject of another data set is breast cancer. The note with it: first-line chemotherapy; cited from earlier work.
For data set [2] the following is noted: cited from earlier work.
Data set [3] has as its system estrogen receptor-positive breast cancer and bone metastases. The conditions noted are these: cited from earlier work.
For data set [4] the following is noted: individuals receiving 550 mg/m^2; cited from earlier work.

Take `COc1ccc2c(c1)[C@]13CCCC[C@@H]1[C@H](C2)N(C)CC3` [Dextromethorphan]: the “mean performance +/-SE” value in data set [1] (extensive metabolizers (EMs)) is listed as 95+/−0.5%; in data set [1] (poor metabolizers (PMs)) it was 86+/−6%.

For `Cn1c(=O)c2c(ncn2C)n(C)c1=O` [1,3,7-Trimethyl Xanthine (Caffeine), 1,3,7-Trimethyl Xanthine], in the data set on AAMU-Ab, the “% Cross-Reaction AAMU-Ab” value is listed as 0%. Also, the “% Cross-Reaction 1X-Ab” value in the data set on 1X-Ab is reported as 0%.

As for `O=c1[nH]cnc2nc[nH]c12` [Hypoxanthine], in the data set on AAMU-Ab, the “% Cross-Reaction AAMU-Ab” value is on record as 0%. In the data set on 1X-Ab, the “% Cross-Reaction 1X-Ab” value is 0%.

With `Cc1nc2[nH]c(=O)[nH]c(=O)c2[nH]1` [8-Methyl Xanthine], the “% Cross-Reaction AAMU-Ab” value in the data set with AAMU-Ab is recorded as 0%. Also, the “% Cross-Reaction 1X-Ab” value in the data set with 1X-Ab worked out at 0%.

In the case of `CC(=O)Nc1c(N)[nH]c(=O)[nH]c1=O` [5-Acetamino-6-amino-uracil], the “% Cross-Reaction AAMU-Ab” value with AAMU-Ab is reported as 0.6%. Besides, in the data set with 1X-Ab, the “% Cross-Reaction 1X-Ab” value came out at 0%.

Regarding `Cn1cnc2[nH]c(=O)[nH]c(=O)c21` [7-Methyl Xanthine], in the data set with AAMU-Ab, the “% Cross-Reaction AAMU-Ab” value came out at 0%. The “% Cross-Reaction 1X-Ab” value in the data set with 1X-Ab was 0%.

Regarding `Cn1c(=O)[nH]c2ncn(C)c2c1=O` [1,7-Dimethyl Xanthine (Paraxanthine), 1,7-Dimethyl Xanthine], the “% Cross-Reaction AAMU-Ab” value in the data set on AAMU-Ab is reported as 0%. The “% Cross-Reaction 1X-Ab” value in the data set on 1X-Ab stood at 0.5%.

Regarding `CC(=O)Nc1c(N)n(C)c(=O)[nH]c1=O` [5-Acetamino-6-amino-1-methyluracil], the “% Cross-Reaction AAMU-Ab” value with AAMU-Ab is 100%. The IC50 in the data set with AAMU-Ab (read-out: concentration required for 50% inhibition in the competitive antigen ELISA, AAMU-Ab) turned out to be 1.5 µM. The “% Cross-Reaction 1X-Ab” value in the data set with 1X-Ab is recorded as 0%.

For the compound `CC(=O)O[C@@]12CO[C@@H]1C[C@H](O)[C@@]1(C)C(=O)[C@H](O)C3=C(C)[C@@H](OC(=O)[C@H](O)[C@@H](NC(=O)OC(C)(C)C)c4ccccc4)C[C@@](O)([C@@H](OC(=O)c4ccccc4)[C@H]21)C3(C)C` [Docetaxel], the “front-line response rate in breast cancer” value in the data set with breast cancer was “up to 73%”.

For the compound `Nc1ccc(S(=O)(=O)c2ccc(N)cc2)cc1` [dapsone], the adverse reactions in data set [2] (fast acetylators) is recorded as 17%; in data set [2] (slow acetylators), 46%.

`Cn1c(=O)[nH]c2nc[nH]c2c1=O` [1-Methyl Xanthine (1X), 1-Methyl Xanthine]: the “% Cross-Reaction AAMU-Ab” value with AAMU-Ab is 0%. In addition, the “% Cross-Reaction 1X-Ab” value in the data set with 1X-Ab worked out at 100%. Besides, the IC50 in the data set with 1X-Ab (read-out: concentration required for 50% inhibition in the competitive antigen ELISA, 1X-Ab) was 10 µM.

`Cn1cnc2c1c(=O)[nH]c(=O)n2C` [3,7-Dimethyl Xanthine (Theobromine), 3,7-Dimethyl Xanthine]: the “% Cross-Reaction AAMU-Ab” value with AAMU-Ab was determined as 0%. In the data set with 1X-Ab, the “% Cross-Reaction 1X-Ab” value came to 0%.

With `Cn1c(=O)c2[nH]cnc2n(C)c1=O` [1,3-Dimethyl Xanthine (Theophylline), 1,3-Dimethyl Xanthine], in the data set on AAMU-Ab, the “% Cross-Reaction AAMU-Ab” value was found to be 0%. In addition, the “% Cross-Reaction 1X-Ab” value in the data set on 1X-Ab came to 0.2%.

With `CC/C(=C(\c1ccccc1)c1ccc(OCCN(C)C)cc1)c1ccccc1` [tamoxifen], the “occurrence of hormone flare (increasing bone pain, erythema, hypercalcemia)” value in data set [3] (after 7-14 days of treatment, women with estrogen receptor-positive breast cancer and bone metastases) is “approximately 5%”. Also, the “individuals with hormone flare who respond to tamoxifen” value in data set [3] (individuals with hormone flare) was 75%.

Turning to `O=c1[nH]c(=O)c2[nH]c(=O)[nH]c2[nH]1` [Uric acid], the “% Cross-Reaction AAMU-Ab” value with AAMU-Ab was 0%. In addition, in the data set on 1X-Ab, the “% Cross-Reaction 1X-Ab” value is on record as 0%.

On to `Cn1c(=O)[nH]c2[nH]c(=O)n(C)c2c1=O` [1,7-Dimethyluric acid], for which the “% Cross-Reaction AAMU-Ab” value with AAMU-Ab is 0%. In addition, in the data set on 1X-Ab, the “% Cross-Reaction 1X-Ab” value worked out at 0%.

Turning to `O=c1[nH]c(=O)c2[nH]cnc2[nH]1` [Xanthine], the “% Cross-Reaction AAMU-Ab” value in the data set with AAMU-Ab was 0^a %. In addition, the “% Cross-Reaction 1X-Ab” value in the data set with 1X-Ab is 0%.

Consider `Nc1nc2nc[nH]c2c(=O)[nH]1` [Guanine], for which the “% Cross-Reaction AAMU-Ab” value with AAMU-Ab was 0%. Besides, the “% Cross-Reaction 1X-Ab” value in the data set with 1X-Ab amounted to 0%.

For `COc1cccc2c1C(=O)c1c(O)c3c(c(O)c1C2=O)C[C@@](O)(C(=O)CO)C[C@@H]3O[C@H]1C[C@H](N)[C@H](O)[C@H](C)O1` [doxorubicin], the “incidence of cardiomyopathy (congestive heart failure and dysrhythmias)” value in data set [4] is “approximately 2%”. Also, the “front-line response rate in breast cancer” value in the data set on breast cancer was 53%.

Turning to `Cn1c(=O)[nH]c(=O)c2[nH]cnc21` [3-Methyl Xanthine], the “% Cross-Reaction AAMU-Ab” value in the data set with AAMU-Ab is recorded as 0%. The “% Cross-Reaction 1X-Ab” value with 1X-Ab came out at 0%.

Consider `Cn1c(=O)[nH]c2[nH]c(=O)[nH]c2c1=O` [1-Methyluric acid], for which, in the data set on AAMU-Ab, the “% Cross-Reaction AAMU-Ab” value was found to be 0%. In addition, the “% Cross-Reaction 1X-Ab” value in the data set with 1X-Ab came out at 11%.

With `O=c1cc[nH]c(=O)[nH]1` [Uracil], the “% Cross-Reaction AAMU-Ab” value in the data set on AAMU-Ab is on record as 0%. Further, the “% Cross-Reaction 1X-Ab” value with 1X-Ab is given as 0%.

For the compound `CC(=O)Nc1c(N)n(C)c(=O)n(C)c1=O` [5-Acetamino-6-amino-1,3-dimethyluracil], the “% Cross-Reaction AAMU-Ab” value with AAMU-Ab is given as 0%. For the same compound, the “% Cross-Reaction 1X-Ab” value in the data set on 1X-Ab is 0%.
